Results: patent US6538013B2, “Acyclic and cyclic guanidine-and acetamidine derivatives, their preparation and their use as pesticides, esp. as parasiticides” (Novartis Animal Health US, Inc., priority 1998, dated 2003)

How the values were obtained:
Assay type in all cases: in vivo
[1] = test system: cat fleas [Ctenocephalides felis (Bouche)]; test: Control of adult fleas in cats by means of subcutaneous injection; settings: for action against adult fleas: subcutaneous injection behind left shoulder blade
Experimental: Test protocol for each test compound: in order to determine the effectiveness of the test compounds against fully grown fleas, four groups each of two cats from 1.5 to 4 years of age are used. Each cat is infested with 100 cat fleas [Ctenocephalides felis (Bouche)]. Two groups are treated with 20 mg of active ingredient per kg body weight. The treatment is effected by subcutaneous injection of a solution of the active ingredient behind the left shoulder blade. While one group is infested with fleas but is treated only with a placebo, that is to say a formulation without active ingredient, and serves as control, another group is treated with nitenpyram as comparison substance. Evaluation is made in each case by combing surviving fleas out of the animal's coat and comparing the number counted with the number of fleas in the control group and in the group treated with nitenpyram. The procedure in detail is as follows: each cat is infested with 100 fleas immediately after treatment on day 0. On day +1, each animal is combed and the number of surviving fleas is determined; the surviving fleas are then replaced on the same cat and after 24 hours the combing and evaluation are repeated. The fleas still surviving after those 24 hours are not returned to the cat. The described procedure is then repeated on days +3, +7, +9, +14, +21 and +28 and in this way the effectiveness and duration of action is determined. The effectiveness is determined using the same formula as in the preceding Example.

[2] = test system: cat fleas [Ctenocephalides felis (Bouche)]; test: Control of adult fleas in cats by means of pour-on application; settings: for action against adult fleas: pour-on on back of neck, 20 mg of active ingredient per kg body weight; for long-term action / long-term activity against adult fleas: evaluated up to day +63
Experimental: Test protocol for each test compound: in order to determine the effectiveness of the test compounds against fully grown fleas, four groups each of two cats are used. Each cat is infested with 100 cat fleas [Ctenocephalides felis (Bouche)] and treated with 20 mg of active ingredient per kg body weight. The treatment is effected by applying the formulation to a locally limited area on the back of the cat's neck. While one group is infested with fleas but is treated only with a placebo, that is to say a formulation without active ingredient, and serves as control, another group is treated with nitenpyram as comparison substance; the two remaining groups receive the test compounds. Evaluation is made in each case by combing surviving fleas out of the animal's coat and comparing the number counted with the number of fleas in the control group and in the group treated with nitenpyram. The procedure in detail is as follows: each cat is infested with 100 fleas immediately after treatment on day 0. On day +1, each animal is combed and the number of surviving fleas is determined; the surviving fleas are then replaced on the same cat and after 24 hours the combing and evaluation are repeated. The fleas still surviving after those 24 hours are not returned to the cat. The described procedure is then repeated on days +3, +7, +9, +14, +21, +28, +35, +42, +49, +56 and +63 and in this way the effectiveness and duration of action are determined. The effectiveness is determined in accordance with the following formula: [formula]

[3] = test system: dog fleas [Ctenocephalides canis]; test: Control of adult fleas in dogs by means of pour-on application
From the text: In dogs the test proceeds in an entirely analogous manner. In order to investigate the total action and any side-effects after administration in the form of a pour-on formulation, compound No. 1.008 is selected and tested on 11 dogs. The test protocol and the results are given in Example 7.
Test protocol for each test compound: in order to determine the effectiveness of the test compounds against fully grown fleas, three groups each of three dogs (1 male and 2 female beagles) are used; one group consists of two dogs (2 male beagles) and serves as control group. The entire test group consists of 11 beagles between 1 and 3.5 years of age. Each dog is infested with a total of 100 dog fleas [Ctenocephalides canis], 50 male and 50 female. Group 1 is treated with 2 mg, group 2 with 10 mg and group 3 with 20 mg of active ingredient per kg body weight. The treatment is effected by applying the pour-on formulation to a locally limited area on the back of the dog's neck. The fourth group is the control group. The latter is infested with fleas but is treated only with a placebo, that is to say a formulation without active ingredient, and serves for control purposes. Evaluation is made in each case by combing surviving fleas out of the animal's coat and comparing the number counted with the number of fleas in the control group. The procedure in detail is as follows: after treatment with the test formulation (day 0) each dog is infested on each of the subsequent days +1, +7, +14, +23, +28, +35, +49, +56, +63, +70, +77, +84 and +98 with 100 fleas. On the following day, each animal is combed and the number of surviving fleas is determined. The surviving fleas are then replaced on the same dog and after 24 hours the combing and evaluation are repeated. The fleas still surviving after those further 24 hours (2nd day after infestation with 100 fleas) are not returned to the dog. Then on days +3, +7, +9, +14, +21, +28, +35, +42 etc. the described procedure is repeated and in this way the effectiveness and the duration of action are determined. The effectiveness is determined using the formula given in Example 6.

Structure (SMILES): CCN(Cc1ccc(Cl)nc1)C(=C[N+](=O)[O-])N(C)C(=O)OCOC(C)=O [Compound 1.001]
- action against adult fleas ([1]; cats, 20 mg/kg body weight): Very good action
- action against adult fleas [2]: Very good action

Structure (SMILES): CCCCC(=O)OCOC(=O)N(C)C(=C[N+](=O)[O-])N(CC)Cc1ccc(Cl)nc1 [Compound 1.008]
- action against adult fleas ([1]; cats, 20 mg/kg body weight): Very good action
- action against adult fleas [2]: Very good action
- action (effectiveness) to which it gradually declines after 7 weeks ([2]; pour-on, 20 mg/kg body weight): 26%
- long-term action / long-term activity against adult fleas ([2]; pour-on, 20 mg/kg body weight): especially high level of long-term activity
- action (effectiveness) against fleas ([3]; dogs (beagles), pour-on, groups 2, 10 and 20 mg/kg (group not stated), 79 days after application): 100%
- effectiveness against fleas ([3]; dogs (beagles), pour-on, groups 2, 10 and 20 mg/kg (group not stated), day 86): 98.6%
- effectiveness against fleas ([3]; dogs (beagles), pour-on, groups 2, 10 and 20 mg/kg (group not stated), day 98): 92.3%
- skin irritation or other undesirable side-effects ([3]; dogs of the three test groups, pour-on 2, 10 and 20 mg/kg body weight): no skin irritation or any other undesirable side-effects

Structure (SMILES): CCCCCCCC(=O)OCOC(=O)N(C)C(=C[N+](=O)[O-])N(CC)Cc1ccc(Cl)nc1 [Compound 1.011]
- action against adult fleas ([1]; cats, 20 mg/kg body weight): Very good action
- action against adult fleas [2]: Very good action
- action (effectiveness) to which it gradually declines after 7 weeks ([2]; pour-on, 20 mg/kg body weight): 26%
- long-term action / long-term activity against adult fleas ([2]; pour-on, 20 mg/kg body weight): especially high level of long-term activity

Structure (SMILES): CCCCCCCCCCCC(=O)OCOC(=O)N(C)C(=C[N+](=O)[O-])N(CC)Cc1ccc(Cl)nc1 [Compound 1.012]
- action against adult fleas ([1]; cats, 20 mg/kg body weight): Very good action
- period of full action ([1]; cats, subcutaneous injection, 20 mg/kg body weight): at least 20 days
- long-term action / long-term activity against adult fleas ([1]; cats, subcutaneous injection, 20 mg/kg body weight, evaluated up to day +28): especially high level of long-term activity
- action against adult fleas [2]: Very good action
- action (effectiveness) to which it gradually declines after 7 weeks ([2]; pour-on, 20 mg/kg body weight): 26%
- long-term action / long-term activity against adult fleas ([2]; pour-on, 20 mg/kg body weight): especially high level of long-term activity

Structure (SMILES): CCCCCCCCCCCCCC(=O)OCOC(=O)N(C)C(=C[N+](=O)[O-])N(CC)Cc1ccc(Cl)nc1 [Compound 1.013]
- action against adult fleas ([1]; cats, 20 mg/kg body weight): Very good action
- action against adult fleas [2]: Very good action

Structure (SMILES): CCCCCCCCCCCCCCCC(=O)OCOC(=O)N(C)C(=C[N+](=O)[O-])N(CC)Cc1ccc(Cl)nc1 [Compound 1.014]
- action against adult fleas ([1]; cats, 20 mg/kg body weight): Very good action
- action against adult fleas [2]: Very good action

Structure (SMILES): CCCCCCCCCCCCCCCCCC(=O)OCOC(=O)N(C)C(=C[N+](=O)[O-])N(CC)Cc1ccc(Cl)nc1 [Compound 1.015]
- action against adult fleas ([1]; cats, 20 mg/kg body weight): Very good action
- action against adult fleas [2]: Very good action

Structure (SMILES): CCN(Cc1ccc(Cl)nc1)C(=C[N+](=O)[O-])N(C)C(=O)OCOC(=O)c1ccccc1 [Compound 1.018]
- action against adult fleas ([1]; cats, 20 mg/kg body weight): Very good action
- action against adult fleas [2]: Very good action

Structure (SMILES): CCCCCC(=O)OCOC(=O)N(C)C(=C[N+](=O)[O-])N(CC)Cc1ccc(Cl)nc1 [Compound 1.019]
- long-term action in a further, fully analogous test ([2]; pour-on): long-term action equally as excellent

Structure (SMILES): CCN(Cc1ccc(Cl)nc1)C(=C[N+](=O)[O-])N(C)C(=O)OCOC(=O)c1ccc(C(C)(C)C)cc1 [Compound 1.022]
- action against adult fleas ([1]; cats, 20 mg/kg body weight): Very good action
- action against adult fleas [2]: Very good action

Structure (SMILES): CCN(Cc1ccc(Cl)nc1)C(=C[N+](=O)[O-])N(C)C(=O)OCOC(=O)C(C)(C)CC [Compound 1.056]
- long-term action in a further, fully analogous test ([2]; pour-on): long-term action equally as excellent

Structure (SMILES): CCCCCCC(=O)OCOC(=O)N(C)C(=C[N+](=O)[O-])N(CC)Cc1ccc(Cl)nc1 [Compound 1.057]
- long-term action in a further, fully analogous test ([2]; pour-on): long-term action equally as excellent

Structure (SMILES): CCCCCCCCCCC(=O)OCOC(=O)N(C)C(=C[N+](=O)[O-])N(CC)Cc1ccc(Cl)nc1 [Compound 1.058]
- long-term action in a further, fully analogous test ([2]; pour-on): long-term action equally as excellent

Structure (SMILES): CCN(Cc1ccc(Cl)nc1)/C(=C\[N+](=O)[O-])NC [nitenpyram, (E)-N-(6-chloro-3-pyridylmethyl)-N-ethyl-N-methyl-2-nitrovinylidenediamine, reference compound]
- period of full action ([1]; sc, 20 mg/kg): 2 days
- period of full action (100% effectiveness) ([2]; pour-on, 20 mg/kg body weight): ≤ 3 weeks
